Test system: human neutrophils
Experiment: Ca2+ mobilization
Assay type: cell-based
Details: Neutrophil, read-out: Ca2+ flux Efficacy

SMILES	Emax
COc1cccc(Cc2ccnn(CC(=O)Nc3ccc(Br)cc3)c2=O)c1 [Compound 6a, N-(4-Bromophenyl)-2-[5-(3-methoxybenzyl)-6-oxopyridazin-1(6H)-yl]acetamide]	100%
Cc1cc(N)c(=O)n(CC(=O)Nc2ccc(Br)cc2)n1 [Compound 27, N-(4-Bromophenyl)-2-[5-amino-3-methyl-6-oxopyridazin-1(6H)-yl]acetamide]	100%

— publication PMC3711119 (European journal of medicinal chemistry, 2013)
